Measured values published in paper PMC11249646, “Small-Molecule Disruptors of the Interaction between Calcium- and Integrin-Binding Protein 1 and Integrin αIIbβ3 as Novel Antiplatelet Agents” (ACS Pharmacology & Translational Science, 2024).
Like-named read-outs stand apart in the source and are kept apart here.

Key:
[1] = molecular target: T1, CIB1 and αIIb interaction (CIB1-GST : F-αIIb peptide) (Homo sapiens, UniProt Q99828); assay: FP assay, 1536-well qHTS format (primary and confirmatory screen); format: binding; conditions: for Curve Class (confirmatory screen) / CONFIRMATORY SCREEN Curve Class: qHTS curve class
T1 construct: made in house; host or cells: BL-21 plus RIL cells (E. coli)
T1 sequence (Q99828 1-191): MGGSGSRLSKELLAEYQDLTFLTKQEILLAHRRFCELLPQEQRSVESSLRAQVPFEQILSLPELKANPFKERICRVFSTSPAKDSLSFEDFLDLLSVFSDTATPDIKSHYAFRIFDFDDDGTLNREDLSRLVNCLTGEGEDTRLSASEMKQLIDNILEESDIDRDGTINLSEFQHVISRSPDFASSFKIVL

[2] = molecular target: T2, GST-CIB1 : F-scrambled peptide (Homo sapiens, UniProt Q99828); assay: FP scrambled-peptide counter screen, 1536-well format; format: binding; conditions: for Curve Class (counterscreen) / COUNTERSCREEN Curve Class: qHTS curve class; for IC50: read-out: IC50 [μM] (counterscreen); for Confirm? (counterscreen): YES/NO
T2 construct: made in house; host or cells: BL-21 plus RIL cells (E. coli)
T2 sequence (Q99828 1-191): T1 sequence (Q99828 1-191)

[3] = confirmatory screen, negative sign = inhibitory curve
[4] = qHTS primary screen hits, Table S2, negative = inhibition
[5] = qHTS primary screen hits, Table S2, negative sign = inhibitory curve, several classes where COUNT > 1
[6] = qHTS primary screen hits, Table S2, read-out: IC50
[7] = counterscreen, negative sign = inhibitory curve
[8] = confirmatory screen, read-out: IC50 [μM] (confirmatory screen)
[9] = qHTS primary screen hits, Table S2, negative sign = inhibitory curve
[10] = Table S3, confirmatory screen, YES/NO call
[11] = Table S3, confirmatory screen, a negative sign marks inhibitory curves
[12] = Table S3, confirmatory screen, negative = inhibition
[13] = Table S3, counterscreen, a negative sign marks inhibitory curves
[14] = Table S3, counterscreen, negative = inhibition
[15] = qHTS FP screen hits, Table S2, negative = inhibition
[16] = qHTS FP screen hits, Table S2, one class per curve where COUNT > 1, negative sign = inhibitory curve
[17] = qHTS FP screen hits, Table S2, read-out: IC50
[18] = Table S3, confirmatory screen, read-out: IC50 [μM] (confirmatory screen)

Row | Compound | IC50 [1, 6] | Curve Class (counterscreen) [2, 7] | IC50 ([2]; counterscreen) | Curve Class (confirmatory screen) [1, 11] | Efficacy (%) (confirmatory screen) [1, 12] | Curve Class (counterscreen) [2, 13] | Efficacy (%) (counterscreen) [2, 14] | Efficacy (%) (confirmatory screen) ([1]; confirmatory screen) | Confirm? (confirmatory screen) ([1]; confirmatory screen, YES/NO) | Curve Class (confirmatory screen) [1, 3] | Efficacy (%) [1, 4] | Curve Class [1, 5] | Efficacy (%) (counterscreen) ([2]; counterscreen) | IC50 ([2]; Table S3, counterscreen) | Efficacy (%) [1, 15] | IC50 [1, 17] | also measured
1 | COc1cc(C=C2C(=O)Nc3ccccc32)cc(OC)c1O [NCGC00343740-01] | 44.7 µM | -2.4 | 44.7 µM |  |  |  |  | -81% | YES | -2.2 | -53% | -2.2 | -44% |  |  |  | 
2 | Cc1ccc(S(=O)(=O)Nc2cnccc2C(=O)Nc2ccc(-c3nnn[nH]3)cc2)cc1.O=C(O)C(F)(F)F [NCGC00343837-01] | 31.6 µM | 4 |  |  |  |  |  | -63% | YES | -2.4 | -24% |  | -40% |  |  |  | IC50 [1, 8]: 35.5 µM; Curve Class [1, 9]: -2.4; Confirm? (counterscreen) ([2]; counterscreen): YES
3 | O=C(O)C(F)(F)F.O=S(=O)(Nc1ccc(N2CCNCC2)cc1)c1ccc(NCc2ccc(Br)cc2O)cc1 [NCGC00343874-01] | 79.4 µM |  |  | -2.4 | -41% | -2.2 | -58% |  |  |  | -76% | -2.2 |  | 44.7 µM |  |  | Confirm? (confirmatory screen) [1, 10]: YES
4 | N#Cc1ccc(NS(=O)(=O)c2ccc(NC(=O)Cc3ccc(F)c(Cl)c3)cc2)cc1.O=C(O)C(F)(F)F [NCGC00343891-01] | 4 µM |  |  | 3 | 72% | 3 | 154% |  |  |  | -15% | -1.4 |  | 89.1 µM |  |  | 
5 | COc1ccc(S(=O)(=O)Nc2cnccc2C(=O)Nc2nc(-c3ccccc3)cs2)cc1.O=C(O)C(F)(F)F [NCGC00344944-01] |  | -2.2 | 44.7 µM |  |  |  |  | -81% | YES | -2.2 |  |  | -81% |  | -52% | 39.8 µM | Curve Class [1, 16]: -2.2
6 | O=C(Nc1nc(-c2ccccc2)cs1)c1ccncc1NS(=O)(=O)c1cccs1.O=C(O)C(F)(F)F [NCGC00345032-01] |  | -2.2 | 79.4 µM |  |  |  |  | -85% | YES | -1.2 | -59% | -2.2 | -52% |  |  |  | IC50 [1, 8]: 25.1 µM; Confirm? (counterscreen) ([2]; counterscreen): YES
7 | CN(C)CCN1C(=O)c2cccc3cc(N)cc(c23)C1=O [NCGC00346513-01] | 1.1 µM |  |  |  |  |  |  |  |  |  | -32% | -1.2 |  |  |  |  | CONFIRMATORY SCREEN Efficacy (%) ([1]; confirmatory screen): -50%; CONFIRMATORY SCREEN Curve Class ([1]; confirmatory screen): 4; COUNTERSCREEN Efficacy (%) ([2]; counterscreen): -24%; COUNTERSCREEN Curve Class ([2]; counterscreen): 4
8 | O=C(O)CCNc1cc(N2CCc3ccccc3CC2)nc(-c2ccccn2)n1 [NCGC00347943-01] |  |  |  |  |  |  |  |  |  |  |  |  |  |  |  |  | CONFIRMATORY SCREEN Efficacy (%) ([1]; confirmatory screen): -28%; CONFIRMATORY SCREEN Curve Class ([1]; confirmatory screen): 4; COUNTERSCREEN Efficacy (%) ([2]; counterscreen): -35%; COUNTERSCREEN Curve Class ([2]; counterscreen): 4
9 | CCCCCCCCn1cc(CC(N)=O)c2cc(-c3cccc(C)c3)ccc21.O=C(O)C(F)(F)F [NCGC00348156-02] |  |  |  | -2.4 | -95% | -2.1 | -121% |  |  |  |  |  |  | 39.8 µM | -74% | 50.1 µM | Confirm? (confirmatory screen) [1, 10]: YES; IC50 [1, 18]: 44.7 µM
10 | CC1=C(C(=O)Nc2cccc(C(=O)O)c2)C(c2ccccc2Cl)N=C(Nc2nc3ccccc3o2)N1.O=C(O)C(F)(F)F (centres unmarked) [NCGC00351024-01] |  |  | 79.4 µM |  |  |  |  | -26% | YES | -2.4 |  |  | 141% |  | -37% | 39.8 µM | Curve Class [1, 16]: -2.2; Confirm? (counterscreen) ([2]; counterscreen): YES

Now from value to compound, other results behind:

Row | IC50 [1, 6] | Curve Class (counterscreen) [2, 7] | IC50 ([2]; counterscreen) | Curve Class (confirmatory screen) [1, 11] | Efficacy (%) (confirmatory screen) [1, 12] | Curve Class (counterscreen) [2, 13] | Efficacy (%) (counterscreen) [2, 14] | Compound | Efficacy (%) (confirmatory screen) ([1]; confirmatory screen) | Confirm? (confirmatory screen) ([1]; confirmatory screen, YES/NO) | Curve Class (confirmatory screen) [1, 3] | Efficacy (%) [1, 4] | Curve Class [1, 5] | Efficacy (%) (counterscreen) ([2]; counterscreen) | IC50 ([2]; Table S3, counterscreen) | Efficacy (%) [1, 15] | IC50 [1, 17] | also measured
11 | 21.5 µM |  |  | 4 | -25% | 4 | -21% | C[C@@H](NCc1cc2ccccc2[nH]1)c1cccc2ccccc12.Cl [NCGC00344505-01] |  |  |  | -31% | -2.4 |  |  |  |  | 
12 | 19.2 µM |  |  | -1.2 | -78% | -1.1 | -150% | CO[C@@H]1C(N(C)C(=O)c2ccccc2)C[C@H]2O[C@]1(C)n1c3ccccc3c3c4c(c5c6ccccc6n2c5c31)C(=O)NC4=O (some centres unmarked) [NCGC00345083-01] |  |  |  | -67% | -2.2 |  | 22.4 µM |  |  | Confirm? (confirmatory screen) [1, 10]: YES; IC50 [1, 18]: 14.1 µM
13 | 38.5 µM |  |  |  |  |  |  | Cc1nc(C(=O)NCC(=O)O)c(O)c2ccc(Oc3ccccc3)cc12 [NCGC00346527-01] |  |  |  | -24% |  |  |  |  |  | CONFIRMATORY SCREEN Efficacy (%) ([1]; confirmatory screen): -26%; CONFIRMATORY SCREEN Curve Class ([1]; confirmatory screen): 4; Curve Class [1, 9]: -2.4; COUNTERSCREEN Efficacy (%) ([2]; counterscreen): 0%; COUNTERSCREEN Curve Class ([2]; counterscreen): 4
14 | 21.5 µM |  |  | -2.2 | -78% | -2.1 | -91% | Nc1cccc2c1C(=O)N(C1CCC(=O)NC1=O)C2=O (centres unmarked) [NCGC00346551-01] |  |  |  | -43% | -2.2 |  | 44.7 µM |  |  | Confirm? (confirmatory screen) [1, 10]: YES; IC50 [1, 18]: 50.1 µM
15 |  | -1.2 | 15.8 µM |  |  |  |  | C=C1C(=O)[C@@]23C(CC[C@@H]1[C@H]2O)[C@@]12CO[C@]3(O)[C@@H](O)[C@@H]1C(C)(C)CC[C@@H]2O (some centres unmarked) [NCGC00346595-02] | -89% | YES | -1.1 |  |  | -60% |  |  |  | IC50 [1, 8]: 25.1 µM
16 |  |  |  | -1.3 | -102% | -1.1 | -108% | CN1CCCN(C(=O)c2cccc(-c3ccc(/C=C4/C(=O)Nc5ccc(Cl)cc54)o3)c2)CC1 [NCGC00346935-01] |  |  |  |  |  |  | 35.5 µM | -37% | 15.2 µM | Confirm? (confirmatory screen) [1, 10]: YES; IC50 [1, 18]: 35.5 µM; Curve Class [1, 16]: -2.2
17 |  | 3 | 39.8 µM |  |  |  |  | COc1ccc(NC(=O)c2[nH]c(C)c(C(C)=O)c2C)cc1S(=O)(=O)Nc1ccccc1C#N [NCGC00348145-01] | -41% | YES | -2.2 |  |  | 157% |  | -21% | 31.6 µM | IC50 [1, 8]: 35.5 µM; Confirm? (counterscreen) ([2]; counterscreen): YES
18 |  | -2.2 | 89.1 µM |  |  |  |  | COc1nc2ccc(Br)cc2cc1[C@@H](c1ccccc1)[C@@](O)(CCN(C)C)c1cccc2ccccc12 [NCGC00348215-04] | -94% | YES | -2.2 |  |  | -83% |  | -64% | 50.1 µM | IC50 [1, 8]: 89.1 µM; Curve Class [1, 16]: -2.2
